We go through three molecules from patent US6251881A, “Method of treating diabetic angiopathy” (priority 1999, dated 2001).

For one series, the system named is humans. The series can be described thus: administration to humans, adverse effects. It is filed as in vivo, human. The following applies: doses exceeding 15 g/m^2.
Another series deals with dogs. The following applies: dog, in vivo.
A further series has as its system mice. The following applies: mouse, in vivo.
For series [1] the following is noted: accepted value; cited from earlier work.
A further series concerns aldose reductase. The following applies: humans, mainly in the 1980s; cited from earlier work.

For the molecule `O=S(=O)([O-])CCSSCCS(=O)(=O)[O-].[Na+].[Na+]`, the adverse effects result in the series with humans, with dogs and in the series on mice was “no adverse effects” throughout.

With `[Cl-].[Na+]` [common table salt], the “oral LD50” value in series [1] is given as 3750 mg/kg.

In the case of `O=C1NC(=O)[C@@]2(CCOc3ccc(F)cc32)N1` [sorbinil], in the series with aldose reductase, the “efficacy in slowing the progress of diabetic retinopathy” value is “some efficacy” and the tolerability in patients entry is on record as “not well tolerated”.
